Assay results as given in article PMC4620681 (Bioorganic & medicinal chemistry letters, 2015).

Assays:
human KOR (hKOR) = human KOR (hKOR) (Homo sapiens, UniProt P41145); conditions: cited from earlier work
hKOR = hKOR (Homo sapiens, UniProt P41145); assay: biochemical; assay type: biochemical; conditions: for Emax: read-out: Emax (percentage of maximal response to U50,488H); for Emax at 1 µM: read-out: Emax at 1 μM (percentage of maximal response to U50,488H)
Chain of hKOR (P41145 whole entry): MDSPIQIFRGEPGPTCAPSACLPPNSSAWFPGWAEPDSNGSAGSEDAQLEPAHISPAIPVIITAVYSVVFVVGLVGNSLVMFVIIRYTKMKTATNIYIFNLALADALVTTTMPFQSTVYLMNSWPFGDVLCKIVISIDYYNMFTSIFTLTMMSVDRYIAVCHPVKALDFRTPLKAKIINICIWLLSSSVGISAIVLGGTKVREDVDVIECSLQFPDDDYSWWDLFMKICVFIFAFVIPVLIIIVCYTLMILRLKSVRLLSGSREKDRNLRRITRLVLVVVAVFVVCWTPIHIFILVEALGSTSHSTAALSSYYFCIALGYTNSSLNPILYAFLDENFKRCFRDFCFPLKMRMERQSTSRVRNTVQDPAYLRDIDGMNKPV

Chain of human KOR (hKOR) (P41145 whole entry): as above

Row | Structure (SMILES) | Emax at 1 µM (hKOR) | also measured
1 | COC(=O)[C@@H]1C[C@H](O)C(=O)[C@H]2[C@@]1(C)CC[C@H]1C(=O)O[C@H](c3ccoc3)C[C@]21C [Compound 2, Salvinorin B] |  | affinity to KOR (in words) (human KOR (hKOR)): comparatively much lower affinity; fold lower affinity than its epimer (human KOR (hKOR)): 3 fold
2 | COC[C@@]1(C)C[C@@H](C(=O)OC)[C@]2(C)CC[C@H]3C(=O)O[C@H](c4ccoc4)C[C@]3(C)[C@H]2C1=O [Compound 9a, 2-methyl-2-methoxymethyl-salvinorin ether] |  | agonist / antagonist activity at KOR (hKOR): potent full agonist; Emax (hKOR): 123 ± 16%
3 | COC[C@@]1(C)C[C@@H](C(=O)OC)[C@]2(C)CC[C@@H]3C(=O)O[C@H](c4ccoc4)C[C@]3(C)[C@H]2C1=O [Compound 9b] |  | Emax (hKOR): 103 ± 16%
4 | CC[C@]1(COC)C[C@@H](C(=O)OC)[C@]2(C)CC[C@H]3C(=O)O[C@H](c4ccoc4)C[C@]3(C)[C@H]2C1=O [Compound 10a] | 83% | 
5 | CC[C@]1(COC)C[C@@H](C(=O)OC)[C@]2(C)CC[C@@H]3C(=O)O[C@H](c4ccoc4)C[C@]3(C)[C@H]2C1=O [Compound 10b] | 81% | 
6 | C=CC[C@]1(COC)C[C@@H](C(=O)OC)[C@]2(C)CC[C@H]3C(=O)O[C@H](c4ccoc4)C[C@]3(C)[C@H]2C1=O [Compound 12a] | 99% | 
7 | C=CC[C@]1(COC)C[C@@H](C(=O)OC)[C@]2(C)CC[C@@H]3C(=O)O[C@H](c4ccoc4)C[C@]3(C)[C@H]2C1=O [Compound 12b] | 84% | 
8 | COC[C@@]1(CCOCCI)C[C@@H](C(=O)OC)[C@]2(C)CC[C@H]3C(=O)O[C@H](c4ccoc4)C[C@]3(C)[C@H]2C1=O [Compound 14a] | 98% | 
9 | COC[C@@]1(CCOCCI)C[C@@H](C(=O)OC)[C@]2(C)CC[C@@H]3C(=O)O[C@H](c4ccoc4)C[C@]3(C)[C@H]2C1=O [Compound 14b] | 85% | 
